“Also recorded” adds a separate entry of the source.
Legend:
Assay type in all cases: physicochemical
[1] = Hygroscopic behavior test by dynamic vapor sorption (DVS); conditions: for hygroscopicity (in words): DVS, 25 °C
From the text: The experimental method of characterizing the crystalline free form of the compound of formula (I) or the basic salt thereof using dynamic vapor sorption (DVS) is as follows: a small amount of the crystalline sample was placed in a precision sample tray that was compatible with the instrument; after the sample was loaded, the sample tray was placed into the instrument for analysis. In this patent, the instruments used for dynamic vapor sorption were all the DVS Intrinsic plus model, and the following experimental parameters were set: nitrogen was used as the carrier gas, a constant temperature of 25 °C was set, the rate of mass percentage change over a unit of time (dm/dt) = 0.002%/min was used as a criterion for determining if equilibrium is reached, and the program humidity change cycle was set to 50-95-0-95-50% RH; within the range of 0-90% RH, a change of 10% RH was taken as a step, and within the range of 90% RH-95% RH, a change of 5% RH was taken as a step.
In the present invention, the hygroscopic weight increases (hygroscopic weight increase/weight before hygroscopy * 100%) of various crystalline forms under various relative humidity conditions were determined using the dynamic vapor sorption method, and the hygroscopicity of different crystalline compounds was evaluated.

[2] = Solubility determination (equilibrium solubility, 24 hrs stirring at room temperature, HPLC); conditions: for Equilibrium solubility: target concentration 2000 µg/mL, 24 hrs; for pH24 hrs: pH of the filtrate after 24 hrs
Protocol: (§1) The stability and solubility of the crystalline free form of the compound of formula (I) or the basic salt thereof of the present application were determined by HPLC.
The desired amount of the compound was weighed into a glass vial, and the desired amount of a vehicle was added. A stir bar was added to the vial, and the mixture was stirred at room temperature for 24 hrs. After 24 hrs, the appearance of the sample was observed. An appropriate amount of the sample was filtered through a PVDF 0.45 µm filter membrane, and the filtrate was collected. The pH value of the filtrate was determined, and the sample was diluted with MeOH. The diluted sample was injected into an HPLC system to determine the concentration.

[3] = Stability determination (thermal stability and photostability, HPLC purity, appearance, XRPD); conditions: for physical and chemical stability (in words): 50 °C/75% RH (open), 80 °C for 7 days and photostress for 10 days; for XRPD: crystalline form found
Protocol: as §1
An appropriate amount of the sample was placed in a vial and left to stand at 50 °C, 80 °C or 50 °C & 75% RH (open) for 7 days to evaluate thermal stability. An appropriate amount of the sample was placed in a transparent vial, […] evaluation under conditions of overall near-ultraviolet energy of 1.2 * 10^6 Lux·hr and no less than 200 W·hr/m2.

[4] = Relative humidity 0.0 % at 25 °C
[5] = Relative humidity 10.0 % at 25 °C
[6] = Relative humidity 20.0 % at 25 °C
[7] = Relative humidity 30.0 % at 25 °C
[8] = Relative humidity 40.0 % at 25 °C
[9] = Relative humidity 50.0 % at 25 °C
[10] = Relative humidity 60.0 % at 25 °C
[11] = Relative humidity 70.0 % at 25 °C
[12] = Relative humidity 80.0 % at 25 °C
[13] = Relative humidity 90.0 % at 25 °C
[14] = pH 4.7, 50 mM acetic acid buffer
[15] = pH 6.8, 50 mM phosphoric acid buffer
[16] = Aluminum foil light exposure control, 9.2 days
[17] = Transparent light exposure, 9.2 days

Cc1c(NC(=O)c2cc(C3CC3)c(CN3CCCC[C@H]3C(=O)O)cn2)cccc1-c1cccc(NC(=O)c2cc(C3CC3)c(CN3CCCC[C@H]3C(=O)O)cn2)c1C [free-form crystalline form C, (2S,2'S)-1,1'-(((((2,2'-dimethyl-[1,1'-biphenyl]-3,3'-diyl)bis(azanediyl))bis(carbonyl))bis(4-cyclopropylpyridine-6,3-diyl))bis(methylene))bis(piperidine-2-carboxylic acid)]
hygroscopicity (in words) [1]: moderately hygroscopic; also recorded: moderate hygroscopicity | Hygroscopic weight increase (%) [1, 4]: 0.00% | Hygroscopic weight increase (%) [1, 5]: 0.50% | Hygroscopic weight increase (%) [1, 6]: 0.75% | Hygroscopic weight increase (%) [1, 7]: 0.80% | Hygroscopic weight increase (%) [1, 8]: 1.20% | Hygroscopic weight increase (%) [1, 9]: 1.35% | Hygroscopic weight increase (%) [1, 10]: 1.50% | Hygroscopic weight increase (%) [1, 11]: 1.75% | Hygroscopic weight increase (%) [1, 12]: 2.21% | Hygroscopic weight increase (%) [1, 13]: 2.95% | crystalline form changes after DVS testing [1]: no crystalline form changes | Equilibrium solubility ([2]; FaSSGF): 8.9 µg/mL | Equilibrium solubility ([2]; FaSSIF): 3.21 µg/mL | Equilibrium solubility ([2]; FeSSIF): 5.34 µg/mL | Equilibrium solubility ([2]; Water, room temperature): 3.84 µg/mL | solubility (in words) ([2]; buffer system having a pH of 1.2, compared to the other test conditions): improved solubility | Equilibrium solubility ([2]; pH 1.2, HCl 100 mM): 18.92 µg/mL | Equilibrium solubility [2, 14]: 3.3 µg/mL | Equilibrium solubility [2, 15]: 2.31 µg/mL | pH24 hrs ([2]; FaSSGF): 1.56 | pH24 hrs ([2]; FaSSIF): 6.41 | pH24 hrs ([2]; FeSSIF): 4.90 | pH24 hrs ([2]; Water): 6.78 | pH24 hrs ([2]; pH 1.2, HCl 100 mM): 1.30 | pH24 hrs [2, 14]: 4.77 | pH24 hrs [2, 15]: 6.89 | physical and chemical stability (in words) ([3]; 50 °C): extremely high physical and chemical stability | Appearance ([3]; 50 °C, 7 days): White powder | Purity (%) ([3]; 50 °C, 7 days): 98.31% | Appearance ([3]; 50 °C/75%RH, 7 days): White powder | Purity (%) ([3]; 50 °C/75%RH, 7 days): 98.43% | Appearance ([3]; 80 °C, 7 days): White powder | Purity (%) ([3]; 80 °C, 7 days): 97.90% | Appearance [3, 16]: White powder | Purity (%) [3, 16]: 98.51% | Appearance ([3]; Initial, 0 days): White powder | Purity (%) ([3]; Initial, 0 days): 98.42% | Appearance [3, 17]: White powder | Purity (%) [3, 17]: 97.91% | XRPD ([3]; 50 °C, 7 days): Free-form crystalline form C | XRPD ([3]; 50 °C/75%RH, 7 days): Free-form crystalline form C | XRPD ([3]; 80 °C, 7 days): Free-form crystalline form C | XRPD [3, 16]: Free-form crystalline form C | XRPD ([3]; Initial, 0 days): Free-form crystalline form C | XRPD [3, 17]: Free-form crystalline form C

Cc1c(NC(=O)c2cc(C3CC3)c(CN3CCCC[C@H]3C(=O)O)cn2)cccc1-c1cccc(NC(=O)c2cc(C3CC3)c(CN3CCCC[C@H]3C(=O)O)cn2)c1C [free-form crystalline form D, (2S,2'S)-1,1'-(((((2,2'-dimethyl-[1,1'-biphenyl]-3,3'-diyl)bis(azanediyl))bis(carbonyl))bis(4-cyclopropylpyridine-6,3-diyl))bis(methylene))bis(piperidine-2-carboxylic acid)]
hygroscopicity (in words) [1]: moderate hygroscopicity | hygroscopicity (in words) ([1]; listed as crystalline form D): moderately hygroscopic | Hygroscopic weight increase (%) [1, 4]: 0.00% | Hygroscopic weight increase (%) [1, 5]: 0.40% | Hygroscopic weight increase (%) [1, 6]: 0.85% | Hygroscopic weight increase (%) [1, 7]: 1.34% | Hygroscopic weight increase (%) [1, 8]: 1.85% | Hygroscopic weight increase (%) [1, 9]: 2.30% | Hygroscopic weight increase (%) [1, 10]: 2.76% | Hygroscopic weight increase (%) [1, 11]: 3.25% | Hygroscopic weight increase (%) [1, 12]: 3.79% | Hygroscopic weight increase (%) [1, 13]: 4.58% | crystalline form changes after DVS testing [1]: no crystalline form changes | Equilibrium solubility ([2]; FaSSGF): 87.01 µg/mL | Equilibrium solubility ([2]; FaSSIF): 78.44 µg/mL | Equilibrium solubility ([2]; FeSSIF): 433.75 µg/mL | Equilibrium solubility ([2]; Water, room temperature): 51.93 µg/mL | Equilibrium solubility ([2]; pH 1.2, HCl 100 mM): 281.84 µg/mL | Equilibrium solubility [2, 14]: 47.41 µg/mL | Equilibrium solubility [2, 15]: 42.11 µg/mL | pH24 hrs ([2]; FaSSGF): 1.57 | pH24 hrs ([2]; FaSSIF): 6.43 | pH24 hrs ([2]; FeSSIF): 4.94 | pH24 hrs ([2]; Water): 5.82 | pH24 hrs ([2]; pH 1.2, HCl 100 mM): 1.16 | pH24 hrs [2, 14]: 4.73 | pH24 hrs [2, 15]: 6.90 | solubility (in words) ([2]; various pH conditions, buffers and biological medium solutions): significantly improved solubility | physical and chemical stability (in words) ([3]; 50 °C): extremely high physical and chemical stability | Appearance ([3]; 50 °C, 7 days): White powder | Purity (%) ([3]; 50 °C, 7 days): 98.13% | Appearance ([3]; 50 °C/75%RH, 7 days): White powder | Purity (%) ([3]; 50 °C/75%RH, 7 days): 98.24% | Appearance ([3]; 80 °C, 7 days): White powder | Purity (%) ([3]; 80 °C, 7 days): 97.22% | Appearance [3, 16]: White powder | Purity (%) [3, 16]: 98.26% | Appearance ([3]; Initial, 0 days): White powder | Purity (%) ([3]; Initial, 0 days): 98.17% | Appearance [3, 17]: White powder | Purity (%) [3, 17]: 96.06% | XRPD ([3]; 50 °C, 7 days): Free-form crystalline form D | XRPD ([3]; 50 °C/75%RH, 7 days): Free-form crystalline form D | XRPD ([3]; 80 °C, 7 days): Free-form crystalline form D | XRPD [3, 16]: Free-form crystalline form D | XRPD ([3]; Initial, 0 days): Free-form crystalline form D | XRPD [3, 17]: Free-form crystalline form D

— patent EP4806890A1, “CRYSTALLINE COMPOUND OR BASIC SALT THEREOF, PREPARATION METHOD THEREFOR, AND USE THEREOF” (Abbisko Therapeutics Co., Ltd., priority 2023, dated 2025)
